# Experimental data as given in patent US6964975B2, “Isoxazole and thiazole compounds and use thereof as medicine” (Kirin Beer Kabushiki Kaisha, priority 2000, dated 2005).
# How the values were obtained:
# human EDG-2 = biological target: T1, human EDG-2 (Homo sapiens, UniProt Q92633); experiment: Inhibitory activity on LPA-induced elevation of intracellular Ca2+ level; format: cell-based; details: 50% inhibition of elevation of intracellular Ca2+ level by LPA, human EDG-2/HepG2 cells, fura-2
# T1 construct: cDNA of the cloned human EDG-2 was introduced into pEFneo, which is an animal expression vector; expressed in transfected cells; host or cells: HepG2
# In short: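 Stably transfected HepG2 cells loaded with fura-2/AM (45 min, room temperature) in 0.1% BSA HEPES buffer. Test compound added before LPA, and the LPA-evoked intracellular Ca2+ rise measured fluorometrically. IC50 for inhibition derived.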
# Human EDG-2/HepG2 cells = experiment: Inhibitory activity on LPA-accelerated [3H] thymidine incorporation (cell proliferation); format: cell-based; details: 50% inhibition of LPA-induced increase of [3H] thymidine incorporation
# Text: The human EDG-2 expression plasmid was introduced into HepG2 cells by electroporation. After the introduction, culturing was continued while exchanging selective media every 3 to 4 days, thereby obtaining an expressed colony. Regarding these cells, Ca-influx and cell-proliferation by LPA, level of [^3H] LPA binding and the like were inspected to select a cell line which highly expresses human EDG-2 (human EDG-2/HepG2).
# Human EDG-2/HepG2 cells suspended in 10% bovine serum-containing DMEM (Dulbecco's modified eagle medium) were plated on a 96-well plate and, on the next day, the medium was exchanged with serum-free DMEM. 24 hours later, the medium was exchanged with DMEM containing LPA or DMEM containing no LPA, cells were cultured for further 16 hours, and [^3H] thymidine was then added. After culturing for 8 hours subsequent to the addition of [^3H] thymidine, cells were washed with PBS (phosphate-buffered saline), and the amount of [^3H] thymidine incorporated into the cells were assayed by Betaplate filter counter system (Amersham Pharmacia Biotech). The difference between the amount of [^3H] thymidine incorporated in the LPA-added well and the amount of [^3H] thymidine incorporated in the well containing no LPA represents the amount of [^3H] thymidine incorporation accelerated by LPA. […] The test compounds were added immediately before the LPA addition.
# T1 sequence (Q92633 whole entry): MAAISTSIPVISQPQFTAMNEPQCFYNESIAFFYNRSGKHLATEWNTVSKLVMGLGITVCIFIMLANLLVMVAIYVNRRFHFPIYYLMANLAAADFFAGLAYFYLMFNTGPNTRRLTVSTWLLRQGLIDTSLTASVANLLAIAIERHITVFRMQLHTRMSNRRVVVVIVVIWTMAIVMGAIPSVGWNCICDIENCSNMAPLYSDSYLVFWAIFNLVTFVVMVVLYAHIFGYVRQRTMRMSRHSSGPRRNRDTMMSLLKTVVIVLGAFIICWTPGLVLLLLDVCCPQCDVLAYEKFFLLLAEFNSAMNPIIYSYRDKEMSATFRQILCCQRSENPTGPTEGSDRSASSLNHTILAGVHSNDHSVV
SMILES,IC50 (human EDG-2),IC50 (Human EDG-2/HepG2 cells)
"Cc1noc(-c2ccc(CNCCc3ccncc3)cc2)c1NC(=O)OC(C)c1ccccc1Cl (stereo not drawn) [Compound 111, 1-(2-Chlorophenyl)ethyl N-{3-methyl-5-[4-({[2-(4-pyridyl)ethyl]amino}methyl)phenyl]-4-isoxazolyl}carbamate]",10 to 30 µM,1 to 3 µM
"CC(=O)NCCSCc1ccc(-c2onc(C)c2NC(=O)OC(C)c2ccccc2Cl)cc1 (stereo not drawn) [Compound 145, 1-(2-Chlorophenyl)ethyl N-{5-[4-({[2-(acetylamino)ethyl]sulfanyl}methyl)phenyl]-3-methyl-4-isoxazolyl}carbamate]",3 to 10 µM,0.3 to 1 µM
"COC(=O)CCSCc1ccc(-c2onc(C)c2NC(=O)OC(c2ccccc2)C(F)(F)F)cc1 (stereo not drawn) [Compound 162, Methyl 3-{[4-(3-methyl-4-{[(2,2,2-trifluoro-1-phenylethoxy)carbonyl]amino}-5-isoxazolyl)-benzyl]-sulfanyl}propanoate]",3 to 10 µM,0.03 to 0.1 µM
"Cc1noc(-c2cccc(CSc3nc[nH]n3)c2)c1NC(=O)OC(C)c1ccccc1Cl (stereo not drawn) [Compound 143, 1-(2-Chlorophenyl)ethyl N-(3-methyl-5-{3-[(1H-1,2,4-triazol-3-ylsulfanyl)methyl]phenyl}-4-isoxazolyl)carbamate]",3 to 10 µM,0.1 to 0.3 µM
"Cc1noc(-c2ccncc2)c1NC(=O)OC(C)c1ccccc1Cl (stereo not drawn) [Compound 62, 1-(2-Chlorophenyl)ethyl N-[3-methyl-5-(4-pyridyl)-4-isoxazolyl]carbamate]",3 µM,3 µM
Cc1noc(-c2ccc(CSCC(O)CO)cc2)c1NC(=O)OC(C)c1ccccc1Cl (stereo not drawn) [Compound 135],3 to 10 µM,0.1 to 0.3 µM
"CCc1noc(-c2ccc(CSCC(=O)O)cc2)c1NC(=O)OC(C)c1ccccc1Cl (stereo not drawn) [Compound 154, 2-({4-[4-({[1-(2-Chlorophenyl)ethoxy]carbonyl}amino)-3-ethyl-5-isoxazolyl]benzyl}-sulfanyl)acetic acid]",3 to 10 µM,0.1 to 0.3 µM
"CCOC(=O)CCNCc1ccc(-c2onc(C)c2NC(=O)OC(C)c2ccccc2Cl)cc1 (stereo not drawn) [Compound 113, Ethyl 3-({4-[4-({[1-(2-chlorophenyl)ethoxy]carbonyl}amino)-3-methyl-5-isoxazolyl]-benzyl}amino)propanoate]",10 to 30 µM,0.1 to 0.3 µM
"Cc1noc(-c2ccc(CSC(C)C(=O)O)cc2)c1NC(=O)OC(C)c1ccccc1Cl (stereo not drawn) [Compound 148, 2-({4-[4-({[1-(2-Chlorophenyl)ethoxy]carbonyl}amino)-3-methyl-5-isoxazolyl]benzyl}-sulfanyl)propanoic acid]",10 to 30 µM,0.1 to 0.3 µM
"Cc1noc(-c2ccc(CSc3nc[nH]n3)cc2)c1NC(=O)OC(C)c1ccccc1Cl (stereo not drawn) [Compound 136, 1-(2-Chlorophenyl)ethyl N-(3-methyl-5-{4-[(1H-1,2,4-triazol-3-ylsulfanyl)methyl]-phenyl}-4-isoxazolyl)carbamate]",3 to 10 µM,0.1 to 0.3 µM
"Cc1onc(-c2ccccc2F)c1NC(=O)OC(C)c1ccccc1Cl (stereo not drawn) [Compound 20, 1-(2-Chlorophenyl)ethyl N-[3-(2-fluorophenyl)-5-methyl-4-isoxazolyl]carbamate]",3 µM,1 µM
"CCOC(=O)COCc1ccc(-c2onc(C)c2NC(=O)OC(C)c2ccccc2Cl)cc1 (stereo not drawn) [Compound 168, Ethyl 2-({4-[4-({[1-(2-chlorophenyl)ethoxy]carbonyl}amino)-3-methyl-5-isoxazolyl]-benzyl}oxy)acetate]",3 to 10 µM,1 µM
"Cc1noc(-c2ccc(CSCCC(=O)O)cc2)c1NC(=O)OC(c1ccccc1)C(F)(F)F (stereo not drawn) [Compound 163, 3-{[4-(3-Methyl-4-{[(2,2,2-trifluoro-1-phenylethoxy)carbonyl]amino}-5-isoxazolyl)benzyl]-sulfanyl}propanoic acid]",3 to 10 µM,0.03 to 0.1 µM
"CCc1noc(-c2ccc(CSCC(=O)OC)cc2)c1NC(=O)OC(C)c1ccccc1Cl (stereo not drawn) [Compound 153, Methyl 2-({4-[4-({[1-(2-chlorophenyl)ethoxy]carbonyl}amino)-3-ethyl-5-isoxazolyl]benzyl}-sulfanyl)acetate]",3 to 10 µM,0.3 µM
"Cc1noc(-c2cccc(CSCCc3ccccc3)c2)c1NC(=O)OC(C)c1ccccc1Cl (stereo not drawn) [Compound 142, 1-(2-Chlorophenyl)ethyl N-(3-methyl-5-{3-[(phenethylsulfanyl)methyl]phenyl}-4-isoxazolyl)-carbamate]",3 to 10 µM,0.3 µM
"Cc1noc(-c2ccc(CCl)cc2)c1NC(=O)OC(c1ccccc1)C(F)(F)F (stereo not drawn) [Compound 161, 2,2,2-Trifluoro-1-phenylethyl N-{5-[4-(chloromethyl)phenyl]-3-methyl-4-isoxazolyl}-carbamate]",3 to 10 µM,1 to 3 µM
"Cc1noc(-c2ccc(CSCCO)cc2)c1NC(=O)OC(C)c1ccccc1Cl (stereo not drawn) [Compound 120, 1-(2-Chlorophenyl)ethyl N-[5-(4-{[(2-hydroxyethyl)sulfanyl]methyl}phenyl)-3-methyl-4-isoxazolyl]carbamate]",3 to 10 µM,0.1 to 0.3 µM
"Cc1onc(-c2ccccc2)c1NC(=O)OC(C)c1ccccc1Cl (stereo not drawn) [Compound 4, 1-(2-Chlorophenyl)ethyl N-(5-methyl-3-phenyl-4-isoxazolyl)carbamate]",3 µM,1 µM
"Cc1noc(-c2ccco2)c1NC(=O)OC(C)c1ccccc1Cl (stereo not drawn) [Compound 32, 1-(2-Chlorophenyl)ethyl N-[5-(2-furyl)-3-methyl-4-isoxazolyl]carbamate]",3 µM,1 µM
"COC(=O)CSCc1cccc(-c2onc(C)c2NC(=O)OC(C)c2ccccc2Cl)c1 (stereo not drawn) [Compound 130, Methyl 2-({3-[4-({[1-(2-chlorophenyl)ethoxy]carbonyl}amino)-3-methyl-5-isoxazolyl]-benzyl}sulfanyl)acetate]",3 to 10 µM,0.3 to 1 µM
"Cc1cnc(CNCc2ccc(-c3onc(C)c3NC(=O)OC(C)c3ccccc3Cl)cc2)cn1 (stereo not drawn) [Compound 114, 1-(2-Chlorophenyl)ethyl N-{3-methyl-5-[4-({[(5-methyl-2-pyrazyl)methyl]amino}-methyl)phenyl]-4-isoxazoly}carbamate]",10 to 30 µM,0.3 to 1 µM
"Cc1noc(-c2ccc(C#N)cc2)c1NC(=O)OC(C)c1ccccc1Cl (stereo not drawn) [Compound 47, 1-(2-Chlorophenyl)ethyl N-[5-(4-cyanophenyl)-3-methyl-4-isoxazolyl]carbamate]",1 µM,0.3 µM
"CCOC(=O)CSCc1ccc(-c2onc(C)c2NC(=O)OC(C)c2ccccc2Cl)cc1 (stereo not drawn) [Compound 119, Ethyl 2-({4-[{4-(i [-(2-chlorophenyl)ethoxy]carbonyl}amino)-3-methyl-5-isoxazolyl]benzyl}-sulfanyl)acetate]",3 to 10 µM,0.1 to 0.3 µM
"Cc1noc(-c2ccc(OC(F)(F)F)cc2)c1NC(=O)O[C@H](C)c1ccccc1Br [Compound 44, (1R)-1-(2-Bromophenyl)ethyl N-[3-methyl-5-[4-(trifluoromethoxy)phenyl]-4-isoxazolyl]carbamate]",3 µM,
"Cc1noc(-c2ccc(F)cc2)c1NC(=O)OC(C)c1ccccc1 (stereo not drawn) [Compound 40, 1-Phenylethyl N-[5-(4-fluorophenyl)-3-methyl-4-isoxazolyl]carbamate]",10 µM,
